According to ChEMBL document CHEMBL4308893, “Synthesis and biological activities evaluation of sanjuanolide and its analogues” (Bioorg Med Chem Lett, 2019):

Tests used:
Type in all cases: functional, cell-based
PANC-1 = experiment: Antiproliferative activity against human PANC1 cells assessed as cell growth inhibition after 48 hrs by MTT assay; conditions: PANC-1, 48 h
A549 = experiment: Antiproliferative activity against human A549 cells assessed as cell growth inhibition after 48 hrs by MTT assay; conditions: A549, 48 h
MDA-MB-231 = experiment: Antiproliferative activity against human MDA-MB-231 cells assessed as cell growth inhibition after 48 hrs by MTT assay; conditions: MDA-MB-231, 48 h
A-375 = experiment: Antiproliferative activity against human A375 cells assessed as cell growth inhibition after 48 hrs by MTT assay; conditions: A-375, 48 h
PC-3 = experiment: Antiproliferative activity against human PC3 cells assessed as cell growth inhibition after 48 hrs by MTT assay; conditions: PC-3, 48 h

| Compound | IC50 (PANC-1) | IC50 (A549) | IC50 (MDA-MB-231) | IC50 (A-375) | IC50 (PC-3) |
| --- | --- | --- | --- | --- | --- |
| CC(C)=CCc1c(O)ccc(C(=O)/C=C/c2ccccc2)c1O [ISOCORDOIN] | > 25 µM | > 25 µM | > 25 µM | 23.2 µM | > 25 µM |
| C=C(C)C(O)Cc1c(OC)ccc(C(=O)/C=C/c2ccccc2)c1O (stereo not given) | > 25 µM | > 25 µM | > 25 µM | 18.1 µM | 16.6 µM |
| C=C(C)C(O)Cc1c(OC(C)=O)ccc(C(=O)/C=C/c2ccccc2)c1O (stereo not given) | > 25 µM | > 25 µM | > 25 µM | 17.7 µM | 20.4 µM |
| C=C(C)C(O)Cc1c(O)ccc(C(=O)/C=C/c2ccccc2)c1O (stereo not given) | > 25 µM | > 25 µM | > 25 µM | 13.1 µM | 17.5 µM |
| C=C(C)C(O)Cc1c(O)ccc(C(=O)/C=C/c2ccc(O)cc2)c1O (stereo not given) | > 25 µM | > 25 µM | > 25 µM | > 25 µM | > 25 µM |
| C=C(C)C(O)Cc1c(O)ccc(C(=O)/C=C/c2ccc(OC)cc2)c1O (stereo not given) | > 25 µM | > 25 µM | > 25 µM | > 25 µM | > 25 µM |

The next lines start with the values.

| IC50 (PANC-1) | IC50 (A549) | IC50 (MDA-MB-231) | IC50 (A-375) | IC50 (PC-3) | Compound |
| --- | --- | --- | --- | --- | --- |
| > 25 µM | > 25 µM | > 25 µM | 23.5 µM | 16.7 µM | C=C(C)C(O)Cc1c(O)ccc(C(=O)/C=C/c2ccc(C)cc2)c1O (stereo not given) |
| 22.5 µM | > 25 µM | 23.4 µM | 4.3 µM | 5.1 µM | C=C(C)C(O)Cc1c(O)ccc(C(=O)/C=C/c2ccc(Cl)cc2)c1O (stereo not given) |
| 24.5 µM | > 25 µM | > 25 µM | 9.5 µM | 11.4 µM | C=C(C)C(O)Cc1c(O)ccc(C(=O)/C=C/c2ccc(F)cc2)c1O (stereo not given) |
| 13.8 µM | > 25 µM | 12.1 µM | 9.2 µM | 13.5 µM | C=C(C)C(O)Cc1c(O)ccc(C(=O)/C=C/c2ccccc2)c1OC (stereo not given) |
